Legend:
Assay type in all cases: cell-based, Human
PSA production = assay: PSA ELISA on medium of LNCaP cells treated with DHT
Protocol: (§1) Human prostatic cancer cell lines LNCaP, DU-145, PC-3, and Tsu-prl were obtained from ATCC. LNCaP cancer cells were maintained in humidified atmosphere of 5% CO2 in air in RPMI 1640 medium supplemented with 10% fetal calf serum (Life Technologies, Inc, Rockville, Md.), 3 mM L-glutamine, 100 μg/ml streptomycin and 100 units/ml penicillin. Other lines were maintained in DMEM containing 3 mM L-glutamine, 100 μg/ml streptomycin, 100 units/ml penicillin, and 10% FCS in humidified atmosphere of 5% CO2. To examine the effects of steroids, cells were cultured in RPMI 1640 medium containing 5% FCS treated with dextran coated charcoal (Hyclone, Logan, Utah) for 24 hs before treatment. Cells were grown in the absence or presence of 10 nM DHT for 0, 2, 4, 6, 12, 24, 48, and 72 hs. They were collected and frozen at each time point. Two hundred μl of medium were collected from each flask for PSA assay.
Quantification of PSA was performed using an ELISA. Briefly, a 96-well Nunc plate was coated with 100 μl of goat anti-PSA (1 μg/ml, Scripps laboratory, San Diego, Calif.) overnight at 4° C. The plate was washed with water three times and incubated with 100 μl of blocking buffer (PBS, 0.05% Tween 20, 1 μM EDTA, 0.25% BSA, and 0.05% NaN3) for 1 h at room temperature. The plate was washed three times with water and incubated with 1:1 mixture of mouse anti-human PSA and Eu-labeled anti-mouse IgG (10 ng/antibody each/well for 1½ hs at RT). The plate was then washed four times with water. 100 μl of Delfia Enhancement Solution (PerkinElmer Wallac Inc (Norton, Ohio) was added to the plate was read using a Victor reader according to the manufacturer's instruction.

[1] = system: prostate specific antigen (PSA) expression; assay: Affymetrix GeneChip expression analysis of LNCaP cells, PSA; conditions: 10 nM DHT
Protocol: as §1
Total RNA was isolated from LNCaP cells using the Qiagen Rneasy Midi Kit following the manufacturer's recommendations. For polyA (+) selection, the Promega PolyATract kit was used according to manufacturer's procedures. […] The cRNA was purified by SPRI using paramagnetic beads (Bangs Laboratories), and total molar concentration was determined from the absorbance at 260. […]

LNCaP cells = assay: Cell growth assay (MTT) of LNCaP cells treated with DHT
Protocol: as §1
To verify the effect of DHT on the growth of LNCaP cells, cells at 3,000 cells/well were plated in 96-well plates for 24 hs before treatment with DHT. After 72 hs, MTT was added to each well and incubated at 37° C. for four hs. At the end of incubation, the supernatant was removed and 100 μl DMSO was added to each well to dissolve […]. Plates were subsequently read in a plate reader at […].

SMARCD3 expression = assay: Affymetrix GeneChip expression analysis of LNCaP cells, SMARCD3
Protocol: as §1
Total RNA was isolated from LNCaP cells using the Qiagen Rneasy Midi Kit following the manufacturer's recommendations. For polyA (+) selection, the Promega PolyATract kit was used according to manufacturer's procedures. Briefly, LNCaP cells were collected by centrifugation and the RNA isolated using the buffers and recommended procedures from the Qiagen kit. Following RNA extraction, all samples were frozen at −80° C. One microgram of poly A(+) RNA was used as template for synthesis of double-stranded cDNA using the GibcoBRL cDNA synthesis kit, with an oligo dT primer incorporating a T7 RNA polymerase promoter (10 minutes at 70° C. for priming, 65 minutes at 37° C. for first strand synthesis with Superscript II RT, followed by 150 min at 15.8° C. for second strand synthesis with E. coli ligase, E. coli polymerase, and RNAse H). […] The cRNA was purified by SPRI using paramagnetic beads (Bangs Laboratories), and total molar concentration was determined from the absorbance at 260. […]

Question: `C[C@]12CCC(=O)C[C@@H]1CC[C@@H]1[C@@H]2CC[C@]2(C)[C@@H](O)CC[C@@H]12` [DHT] was tested. Which “time at which PSA signal was first detected” value (PSA production; DHT treatment) did it give?
Answer: The value was 12 h.

Question: What about the “time of maximal PSA level” value (PSA production; DHT treatment) of the same compound?
Answer: The value was “about 48 hs”.

Question: What about the PSA production (PSA production; dose response, ELISA) of the same compound?
Answer: Its PSA production is “increased in a dose-dependent manner”.

Question: And the “PSA expression increase relative to control” value ([1]; 12 hours)?
Answer: Its value is 3 fold.

Question: And the “PSA expression induction relative to control” value ([1]; 72 hours)?
Answer: The value was “approximately 4 fold”.

Question: And the “growth effect at the chosen concentration” value (LNCaP cells; 10 nM DHT)?
Answer: The value was “robust growth-stimulatory effect”.

Question: What about the “growth of LNCaP cells” value (LNCaP cells; dose response, 72 hs, MTT) of the same compound?
Answer: The value was “stimulated”.

Question: And the “decrease in SMARCD3 expression levels” value (SMARCD3 expression; 24 hours post-androgen treatment)?
Answer: Its value is 2 fold.

Question: And the “decrease in SMARCD3 expression levels” value (SMARCD3 expression; 48 hours post-treatment)?
Answer: Its value is 4 fold.

Question: What about the “decrease in SMARCD3 expression levels” value (SMARCD3 expression; 72 hours post-treatment) of the same compound?
Answer: The value was 6 fold.

— patent US20020142327A1, “Expression analysis of smarc nucleic acids and polypeptides useful in the diagnosis and treatment of prostate cancer” (priority 2000, published 2002)
